Measurements reported in PubChem BioAssay (NCI).
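All cell lines were grown in 96-well plates and treated with compound for 48 hours. GI50 is the concentration that inhibits growth by half. The concentration for full growth arrest is given as TGI.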

Legend:
Test in all cases: NCI-60 cell line screen, 48 h
TK-10 renal = system: TK-10 renal
T-47D breast = system: T-47D breast
DU-145 prostate = system: DU-145 prostate
A498 renal = system: A498 renal
RPMI-8226 leukemia = system: RPMI-8226 leukemia
SK-MEL-2 melanoma = system: SK-MEL-2 melanoma
SW-620 colon = system: SW-620 colon
CCRF-CEM leukemia = system: CCRF-CEM leukemia
SK-OV-3 ovarian = system: SK-OV-3 ovarian
U251 CNS = system: U251 CNS
SNB-75 CNS = system: SNB-75 CNS
LOX IMVI melanoma = system: LOX IMVI melanoma
786-0 renal = system: 786-0 renal
NCI-H522 lung = system: NCI-H522 lung
HL-60(TB) leukemia = system: HL-60(TB) leukemia
COLO 205 colon = system: COLO 205 colon
NCI-H23 lung = system: NCI-H23 lung
HOP-62 NSCLC = system: HOP-62 NSCLC
SF-539 CNS = system: SF-539 CNS
MDA-MB-435 = system: MDA-MB-435
HCC-2998 colon = system: HCC-2998 colon
BT-549 breast = system: BT-549 breast
UACC-62 melanoma = system: UACC-62 melanoma
MDA-MB-231 breast = system: MDA-MB-231 breast
OVCAR-3 ovarian = system: OVCAR-3 ovarian
SR leukemia = system: SR leukemia
CAKI-1 renal = system: CAKI-1 renal
KM12 colon = system: KM12 colon
HS 578T breast = system: HS 578T breast
NCI-H226 lung = system: NCI-H226 lung
NCI-H460 lung = system: NCI-H460 lung
A549 NSCLC = system: A549 NSCLC
SF-295 CNS = system: SF-295 CNS
OVCAR-4 ovarian = system: OVCAR-4 ovarian
HCT-116 colon = system: HCT-116 colon
SF-268 CNS = system: SF-268 CNS
MALME-3M melanoma = system: MALME-3M melanoma
PC-3 prostate = system: PC-3 prostate
MOLT-4 leukemia = system: MOLT-4 leukemia
IGROV1 ovarian = system: IGROV1 ovarian
EKVX NSCLC = system: EKVX NSCLC
SK-MEL-28 melanoma = system: SK-MEL-28 melanoma
OVCAR-5 ovarian = system: OVCAR-5 ovarian
UACC-257 melanoma = system: UACC-257 melanoma
RXF 393 renal = system: RXF 393 renal
SN12C renal = system: SN12C renal
K-562 leukemia = system: K-562 leukemia
HOP-92 NSCLC = system: HOP-92 NSCLC
M14 melanoma = system: M14 melanoma
MDA-MB-468 breast = system: MDA-MB-468 breast
HCT-15 colon = system: HCT-15 colon
MCF7 breast = system: MCF7 breast
ACHN renal = system: ACHN renal
OVCAR-8 ovarian = system: OVCAR-8 ovarian
UO-31 renal = system: UO-31 renal
SK-MEL-5 melanoma = system: SK-MEL-5 melanoma
HT29 colon = system: HT29 colon
SNB-19 CNS = system: SNB-19 CNS

Compound: O=C(c1ccc(Cl)cc1)C1[C@H](c2ccc(Br)cc2)[C@@H](c2ccccc2)NC12C(=O)Nc1ccc(Cl)cc12 (stereo not given in full)
- GI50 (TK-10 renal): 5.49 µM
- TGI (TK-10 renal): 12.2 µM
- GI50 (T-47D breast): 2.13 µM
- TGI (T-47D breast): 9.66 µM
- GI50 (DU-145 prostate): 5.9 µM
- TGI (DU-145 prostate): 13.6 µM
- GI50 (A498 renal): 7.48 µM
- TGI (A498 renal): 15 µM
- GI50 (RPMI-8226 leukemia): 1.99 µM
- TGI (RPMI-8226 leukemia): 13.2 µM
- GI50 (SK-MEL-2 melanoma): 5.51 µM
- TGI (SK-MEL-2 melanoma): 12.1 µM
- GI50 (SW-620 colon): 3.35 µM
- TGI (SW-620 colon): 10.7 µM
- GI50 (CCRF-CEM leukemia): 2.79 µM
- TGI (CCRF-CEM leukemia): 13 µM
- GI50 (SK-OV-3 ovarian): 7.36 µM
- TGI (SK-OV-3 ovarian): 17.3 µM
- GI50 (U251 CNS): 3.58 µM
- TGI (U251 CNS): 10.7 µM
- GI50 (SNB-75 CNS): 2.45 µM
- TGI (SNB-75 CNS): 11.6 µM
- GI50 (LOX IMVI melanoma): 1.83 µM
- TGI (LOX IMVI melanoma): 10.1 µM
- GI50 (786-0 renal): 0.905 µM
- TGI (786-0 renal): 1.89 µM
- GI50 (NCI-H522 lung): 4.22 µM
- TGI (NCI-H522 lung): 11.8 µM
- GI50 (HL-60(TB) leukemia): 4.65 µM
- TGI (HL-60(TB) leukemia): 16.7 µM
- GI50 (COLO 205 colon): 5.85 µM
- TGI (COLO 205 colon): 14.2 µM
- GI50 (NCI-H23 lung): 3.98 µM
- TGI (NCI-H23 lung): 11.7 µM
- GI50 (HOP-62 NSCLC): 6.07 µM
- TGI (HOP-62 NSCLC): 13.1 µM
- GI50 (SF-539 CNS): 6.41 µM
- TGI (SF-539 CNS): 13.1 µM
- GI50 (MDA-MB-435): 2.81 µM
- TGI (MDA-MB-435): 9.75 µM
- GI50 (HCC-2998 colon): 1.63 µM
- TGI (HCC-2998 colon): 7.02 µM
- GI50 (BT-549 breast): 2.71 µM
- TGI (BT-549 breast): 9.33 µM
- GI50 (UACC-62 melanoma): 2.21 µM
- TGI (UACC-62 melanoma): 9.1 µM
- GI50 (MDA-MB-231 breast): 4.63 µM
- TGI (MDA-MB-231 breast): 11.3 µM
- GI50 (OVCAR-3 ovarian): 4.02 µM
- TGI (OVCAR-3 ovarian): 11 µM
- GI50 (SR leukemia): 1.63 µM
- TGI (SR leukemia): 9.55 µM
- GI50 (CAKI-1 renal): 1.42 µM
- TGI (CAKI-1 renal): 8.42 µM
- GI50 (KM12 colon): 2.17 µM
- TGI (KM12 colon): 9.98 µM
- GI50 (HS 578T breast): 6.82 µM
- TGI (HS 578T breast): 23 µM
- GI50 (NCI-H226 lung): 5.3 µM
- TGI (NCI-H226 lung): 12.2 µM
- GI50 (NCI-H460 lung): 1.66 µM
- TGI (NCI-H460 lung): 7.49 µM
- GI50 (A549 NSCLC): 2.31 µM
- TGI (A549 NSCLC): 9.53 µM
- GI50 (SF-295 CNS): 2.75 µM
- TGI (SF-295 CNS): 10.1 µM
- GI50 (OVCAR-4 ovarian): 3.65 µM
- TGI (OVCAR-4 ovarian): 11.9 µM
- GI50 (HCT-116 colon): 0.986 µM
- TGI (HCT-116 colon): 3.01 µM
- GI50 (SF-268 CNS): 2.88 µM
- TGI (SF-268 CNS): 11.2 µM
- GI50 (MALME-3M melanoma): 7.09 µM
- TGI (MALME-3M melanoma): 13.9 µM
- GI50 (PC-3 prostate): 2.03 µM
- TGI (PC-3 prostate): 9.08 µM
- GI50 (MOLT-4 leukemia): 1.64 µM
- TGI (MOLT-4 leukemia): 8.26 µM
- GI50 (IGROV1 ovarian): 2.76 µM
- TGI (IGROV1 ovarian): 9.96 µM
- GI50 (EKVX NSCLC): 4.03 µM
- TGI (EKVX NSCLC): 11.7 µM
- GI50 (SK-MEL-28 melanoma): 5.78 µM
- TGI (SK-MEL-28 melanoma): 12.2 µM
- GI50 (OVCAR-5 ovarian): 5.95 µM
- TGI (OVCAR-5 ovarian): 12.6 µM
- GI50 (UACC-257 melanoma): 6.03 µM
- TGI (UACC-257 melanoma): 12.8 µM
- GI50 (RXF 393 renal): 2.09 µM
- TGI (RXF 393 renal): 9.12 µM
- GI50 (SN12C renal): 1.88 µM
- TGI (SN12C renal): 7.17 µM
- GI50 (K-562 leukemia): 1.64 µM
- TGI (K-562 leukemia): 11.7 µM
- GI50 (HOP-92 NSCLC): 2.3 µM
- TGI (HOP-92 NSCLC): 9.31 µM
- GI50 (M14 melanoma): 2.06 µM
- TGI (M14 melanoma): 8.82 µM
- GI50 (MDA-MB-468 breast): 3.54 µM
- TGI (MDA-MB-468 breast): 11.4 µM
- GI50 (HCT-15 colon): 2.15 µM
- TGI (HCT-15 colon): 8.97 µM
- GI50 (MCF7 breast): 1.69 µM
- TGI (MCF7 breast): 6.82 µM
- GI50 (ACHN renal): 2.17 µM
- TGI (ACHN renal): 8.6 µM
- GI50 (OVCAR-8 ovarian): 5.46 µM
- TGI (OVCAR-8 ovarian): 12.8 µM
- GI50 (UO-31 renal): 1.87 µM
- TGI (UO-31 renal): 8.68 µM
- GI50 (SK-MEL-5 melanoma): 7.68 µM
- TGI (SK-MEL-5 melanoma): 15 µM
- GI50 (HT29 colon): 1.14 µM
- TGI (HT29 colon): 3.22 µM
- GI50 (SNB-19 CNS): 5.97 µM
- TGI (SNB-19 CNS): 13.2 µM

Compound: O=C(Nc1cccc(-n2cc(-c3ccncc3)c(-c3ccc(O)c(Cl)c3)n2)c1)c1cccc(C(F)(F)F)c1
- GI50 (MDA-MB-468 breast): 3.19 µM
- TGI (MDA-MB-468 breast): > 100 µM

Compound: O=C(Nc1ccccc1C(=O)N/N=C(\c1ccccc1)c1ccccn1)c1ccc(F)cc1
- GI50 (MDA-MB-468 breast): 0.192 µM
- TGI (MDA-MB-468 breast): 1.11 µM
